This is an account of results in patent publication US8337900B2, “Reverse-phase microcapsules for active ingredients, simplified process of manufacture thereof and combined formulation WDG-CS, ZC, EC-SC, and CX” (priority 2006, dated 2012).

For data set [1] the following is noted: cited from earlier work.
The nature of data set [2]: Stability to hydrolysis versus commercial formulations. Format: physicochemical. To be noted: in a CX, microencapsulated in NPμ and combined with sulfosate. From the text: This refers to the typical variations: thifensulfuron-ethyl<→thifensulfuron, etc.
The nature of data set [3]: Accelerated heat stability test (54° C.), physical stability and chemical degradation by HPLC. Type of data set: physicochemical. To be noted: NPμ in a CX-w; results and process not shown. The protocol: Both formulations were submitted to accelerated heat stability tests (at 54° C. for 2 weeks).
Also, presence of unencapsulated material—water soluble a.i.—was below 0.1%.
These tests were performed with HPLC and standard methods of analysis under Good Laboratory Practice conditions.

Take `O=C(O)c1cc(Oc2ccc(C(F)(F)F)cc2Cl)ccc1[N+](=O)[O-]` [acifluorfen-sodium]: the solubility in isooctanol entry in data set [1] (isooctanol) is on record as “around 6 g/L”. The solubility in water result in data set [1] (water) was “about 60 g/L”.

As to `COc1cc(OC)nc(NC(=O)NS(=O)(=O)c2ncccc2C(=O)N(C)C)n1` [nicosulfuron], the “more stable to hydrolysis than current commercial formulations” value in data set [2] is given as “at least 20 % times”.

In the case of `CC(C)(C)C(O)(CCc1ccc(Cl)cc1)Cn1cncn1` (centres unmarked) [tebuconazole], the solubility in hexane result in data set [1] (hexane) is given as “lower than 0.1 g/L”.

For `COC(=O)c1ccccc1S(=O)(=O)NC(=O)N(C)c1nc(C)nc(OC)n1` [tribenuron-methyl], the “degradation inhibition by microencapsulation” value in data set [3] was “equally observed”.
